Test results taken from ChEMBL document CHEMBL5620354, “Development of isoselenazolium chlorides as selective pyruvate kinase isoform M2 inhibitors” (Eur J Med Chem, 2023).
pEC50, pIC50: −log10 of the molar value. Active and inactive are the calls of the source. No cut-off for these calls is given here.

Key:
Jurkat [1] = experiment: Induction of ROS production in human Jurkat cells at 1 uM in presence of pyruvate and malate by high-resolution fluorespirometry analysis; format: functional, cell-based
A549 = experiment: cells; details: Homo sapiens, A549, 48 h
Description: Cytotoxicity against human A549 cells assessed as inhibition of cell growth incubated for 48 hrs by MTT assay

[2] = Downregulation of PKM2 mRNA expression in human HCC1937 cells assessed as fold change at 0.5 uM incubated for 24 hrs by qPCR analysis; format: functional
[3] = target: Pyruvate kinase PKLR (Homo sapiens) (UniProt P30613); experiment: Inhibition of PKR (unknown origin) at 1 uM relative to control
Pyruvate kinase PKLR (Homo sapiens), sequence (P30613 whole entry, looked up): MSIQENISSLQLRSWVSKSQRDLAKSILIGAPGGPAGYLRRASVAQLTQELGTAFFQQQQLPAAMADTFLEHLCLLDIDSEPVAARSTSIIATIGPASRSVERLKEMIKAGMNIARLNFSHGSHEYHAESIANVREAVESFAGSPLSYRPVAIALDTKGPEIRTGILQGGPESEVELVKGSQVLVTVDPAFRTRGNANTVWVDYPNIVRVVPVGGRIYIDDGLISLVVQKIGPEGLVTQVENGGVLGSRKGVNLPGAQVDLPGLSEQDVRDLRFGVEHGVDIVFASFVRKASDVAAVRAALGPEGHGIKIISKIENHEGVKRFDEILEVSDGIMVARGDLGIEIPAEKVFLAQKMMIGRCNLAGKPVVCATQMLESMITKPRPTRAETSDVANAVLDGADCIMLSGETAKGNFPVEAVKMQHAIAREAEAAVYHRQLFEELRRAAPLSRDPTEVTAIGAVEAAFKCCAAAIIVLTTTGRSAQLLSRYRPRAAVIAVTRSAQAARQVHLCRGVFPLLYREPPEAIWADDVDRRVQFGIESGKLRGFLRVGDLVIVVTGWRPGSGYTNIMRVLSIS

4T1 [4] = experiment: Induction of ROS production in mouse 4T1 cells assessed as decrease in NADH level at 1 uM incubated for 20 mins by fluorescence cell counter analysis; format: functional; parameters: scale not given: the % may be the effect or the level left
Pyruvate kinase PKM [5] = target: T1, Pyruvate kinase PKM (Homo sapiens, UniProt P14618); experiment: Inhibition of N-terminal his8-tagged PKM2 (unknown origin)
Target sequence in this assay (P14618 whole entry): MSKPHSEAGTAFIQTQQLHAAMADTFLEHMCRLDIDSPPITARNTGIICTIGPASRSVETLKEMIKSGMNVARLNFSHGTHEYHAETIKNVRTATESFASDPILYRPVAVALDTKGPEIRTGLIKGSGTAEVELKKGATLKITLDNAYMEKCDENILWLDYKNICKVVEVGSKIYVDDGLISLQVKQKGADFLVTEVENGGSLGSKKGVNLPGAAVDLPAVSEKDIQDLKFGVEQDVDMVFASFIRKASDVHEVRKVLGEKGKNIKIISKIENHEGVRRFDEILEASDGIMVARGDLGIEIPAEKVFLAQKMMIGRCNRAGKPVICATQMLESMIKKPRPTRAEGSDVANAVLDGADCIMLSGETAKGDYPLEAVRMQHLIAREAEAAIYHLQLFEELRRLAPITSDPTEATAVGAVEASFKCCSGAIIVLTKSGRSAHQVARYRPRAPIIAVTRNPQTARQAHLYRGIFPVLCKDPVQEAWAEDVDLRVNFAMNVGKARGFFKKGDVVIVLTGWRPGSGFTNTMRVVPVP

4T1 [6] = experiment: Downregulation of PKM2 mRNA expression in mouse 4T1 cells at 0.25 to 0.5 uM incubated for 24 hrs by qPCR analysis; format: functional, cell-based; details: dose 0.25-0.5 µM
[7] = Downregulation of PKM2 mRNA expression in human HCC1937 cells assessed as fold change at 0.25 uM incubated for 24 hrs by qPCR analysis; format: functional
Jurkat [8] = experiment: Induction of mitochondrial respiration in human Jurkat cells assessed as increase in oxygen consumption rate at 1 uM in presence of LEAK state by high-resolution fluorespirometry analysis; format: functional, cell-based
MCF7 [9] = experiment: Induction of mitochondrial respiration in human MCF7 cells assessed as increase in oxygen consumption rate at 1 uM in presence of OXPHOS state by high-resolution fluorespirometry analysis; format: functional, cell-based
[10] = Cytotoxicity against rat H9c2 cells assessed as inhibition of cell growth incubated for 48 hrs by MTT assay; format: toxicity, cell-based
4T1 [11] = experiment: Induction of mitochondrial respiration in mouse 4T1 cells assessed as increase in oxygen consumption rate at 1 uM in presence of LEAK state by high-resolution fluorespirometry analysis; format: functional, cell-based
MDA-MB-231 = experiment: Cytotoxicity against human MDA-MB-231 cells assessed as inhibition of cell growth incubated for 48 hrs by MTT assay; format: functional, cell-based; details: MDA-MB-231, 48 h
MCF7 [12] = experiment: Induction of ROS production in human MCF7 cells at 1 uM in presence of pyruvate and malate by high-resolution fluorespirometry analysis; format: functional, cell-based
Jurkat [13] = experiment: Cytotoxicity against human Jurkat cells assessed as inhibition of cell growth incubated for 48 hrs by MTT assay; format: functional, cell-based
Pyruvate kinase PKM [14] = target: T1, Pyruvate kinase PKM; experiment: Inhibition of PKM2 (unknown origin) assessed as increase in tetramer ratio by analytical size-exclusion chromatography; details: dose 5.0 µM
Target sequence in this assay (P14618 2-531 limits assumed): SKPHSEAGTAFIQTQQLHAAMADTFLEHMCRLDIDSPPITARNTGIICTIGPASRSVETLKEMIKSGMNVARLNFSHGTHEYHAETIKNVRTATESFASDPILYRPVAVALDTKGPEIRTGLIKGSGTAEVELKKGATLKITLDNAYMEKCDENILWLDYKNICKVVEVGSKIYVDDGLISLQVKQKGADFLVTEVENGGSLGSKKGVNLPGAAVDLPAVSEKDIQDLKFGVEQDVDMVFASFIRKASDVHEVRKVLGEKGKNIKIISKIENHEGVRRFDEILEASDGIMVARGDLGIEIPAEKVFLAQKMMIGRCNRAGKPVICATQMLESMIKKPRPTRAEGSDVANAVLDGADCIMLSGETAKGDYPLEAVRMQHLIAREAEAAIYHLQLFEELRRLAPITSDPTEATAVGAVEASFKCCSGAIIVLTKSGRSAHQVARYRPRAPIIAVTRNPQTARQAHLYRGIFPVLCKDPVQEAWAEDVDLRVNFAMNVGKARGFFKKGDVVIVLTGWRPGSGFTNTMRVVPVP

Oryctolagus cuniculus = species: Oryctolagus cuniculus; experiment: Inhibition of rabbit LDH at 1 uM relative to control
HCC1937 [15] = experiment: Induction of mitochondrial respiration in human HCC1937 cells assessed as increase in oxygen consumption rate at 1 uM in presence of OXPHOS state by high-resolution fluorespirometry analysis; format: functional, cell-based
HCC1937 [16] = experiment: Induction of ROS production in human HCC1937 cells at 1 uM in presence of pyruvate and malate by high-resolution fluorespirometry analysis; format: functional, cell-based
Pyruvate kinase PKM [17] = target: T1, Pyruvate kinase PKM; experiment: Inhibition of PKM1 (unknown origin); parameters: concentration or dose not given beside the values; details: concentration not given here
Target sequence in this assay (P14618 2-531 limits assumed): as above

HCC1937 [18] = experiment: Induction of mitochondrial respiration in human HCC1937 cells assessed as increase in oxygen consumption rate at 1 uM in presence of LEAK state by high-resolution fluorespirometry analysis; format: functional, cell-based
Pyruvate kinase PKM [19] = target: T1, Pyruvate kinase PKM; experiment: Inhibition of N-terminal his8-tagged PKM2 (unknown origin) in presence of FBP by Michaelis-menten analysis
Target sequence in this assay (P14618 whole entry): as the sequence (P14618 whole entry) above

4T1 [20] = experiment: Induction of ROS production in mouse 4T1 cells assessed as decrease in NAD+/NADH ratio at 1 uM incubated for 20 mins by fluorescence cell counter analysis; format: functional, cell-based
4T1 [21] = experiment: Cytotoxicity against mouse 4T1 cells assessed as inhibition of cell growth incubated for 48 hrs by MTT assay; format: functional, cell-based; details: 4T1, 48 h, read-out: IC50
H9c2 [22] = experiment: Induction of ROS production in rat H9c2 cells assessed as decrease in NAD+/NADH ratio at 1 uM incubated for 20 mins by fluorescence cell counter analysis; format: functional, cell-based
4T1 [23] = experiment: Induction of mitochondrial respiration in mouse 4T1 cells assessed as increase in oxygen consumption rate at 1 uM in presence of OXPHOS state by high-resolution fluorespirometry analysis; format: functional, cell-based
H9c2 [24] = experiment: Induction of ROS production in rat H9c2 cells assessed as decrease in NAD+ level at 1 uM incubated for 20 mins by fluorescence cell counter analysis; format: functional, cell-based
Pyruvate kinase PKM [25] = target: T1, Pyruvate kinase PKM; experiment: Inhibition of PKM2 (unknown origin) by ITC analysis
Target sequence in this assay (P14618 whole entry): as above

H9c2 [26] = experiment: Induction of ROS production in rat H9c2 cells assessed as decrease in NADH level at 1 uM incubated for 20 mins by fluorescence cell counter analysis; format: functional, cell-based
HCC1937 [27] = experiment: Downregulation of PKM1 mRNA expression in human HCC1937 cells at 0.25 to 5 uM incubated for 24 hrs by qPCR analysis; format: functional, cell-based; details: dose 0.25-5 µM
4T1 [28] = experiment: Induction of ROS production in mouse 4T1 cells assessed as decrease in NAD+ level at 1 uM incubated for 20 mins by fluorescence cell counter analysis; format: functional; parameters: scale not given: the % may be the effect or the level left
Jurkat [29] = experiment: Induction of mitochondrial respiration in human Jurkat cells assessed as increase in oxygen consumption rate at 1 uM in presence of OXPHOS state by high-resolution fluorespirometry analysis; format: functional, cell-based
MCF7 [30] = experiment: cells; details: Homo sapiens, MCF7, 48 h
Description: Cytotoxicity against human MCF7 cells assessed as inhibition of cell growth incubated for 48 hrs by MTT assay

HCC1937 [31] = experiment: Cytotoxicity against human HCC1937 cells assessed as inhibition of cell growth incubated for 48 hrs by MTT assay; format: functional, cell-based; details: HCC1937, 48 h
[32] = Binding affinity to Sprague-Dawley rat liver Cardiolipin incubated for 10 mins by microplate reader analysis; format: tissue-based
4T1 [33] = experiment: Induction of ROS production in mouse 4T1 cells at 1 uM in presence of pyruvate and malate by high-resolution fluorespirometry analysis; format: functional, cell-based
MCF7 [34] = experiment: Induction of mitochondrial respiration in human MCF7 cells assessed as increase in oxygen consumption rate at 1 uM in presence of LEAK state by high-resolution fluorespirometry analysis; format: functional, cell-based

SMILES: COC(=O)c1cc[n+]2[se]c(C3(O)CCCCC3)c(Br)c2c1.[Cl-]
- Activity (Jurkat [1]): Active
- pIC50 (A549): 5.89
- fold change (FC) [2]: 20
- inhibition [3]: 21%
- inhibition ([3]; tested as the 2H-labelled form): 16%
- Activity (4T1 [4]): 57.4%
- pIC50 (Pyruvate kinase PKM [5]): 6.46
- Activity (4T1 [6]): Active
- fold change (FC) [7]: 4
- Activity (Jurkat [8]): Active
- Activity (MCF7 [9]): Active
- IC50 at 48 h [10]: 2.46 µM
- Activity (4T1 [11]): Active
- pIC50 (MDA-MB-231): 6.29
- Activity (MCF7 [12]): Active
- pIC50 (Jurkat [13]): 6.36
- inhibition (Pyruvate kinase PKM [14]): Dose-Dependent Effect
- inhibition (Oryctolagus cuniculus): 10%
- inhibition (Oryctolagus cuniculus; tested as the 2H-labelled form): 13%
- Activity (HCC1937 [15]): Active
- Activity (HCC1937 [16]): Active
- inhibition (Pyruvate kinase PKM [17]): 13%
- inhibition (Pyruvate kinase PKM [17]; tested as the 2H-labelled form): 10%
- Activity (HCC1937 [18]): Active
- pIC50 (Pyruvate kinase PKM [19]): 6.32
- Activity (4T1 [20]): inactive
- pIC50 (4T1 [21]): 6.49
- Activity (H9c2 [22]): inactive
- Activity (4T1 [23]): Active
- Activity (H9c2 [24]): inactive
- pIC50 (Pyruvate kinase PKM [25]): 6.60
- Activity (H9c2 [26]): inactive
- Activity (HCC1937 [27]): inactive
- Activity (4T1 [28]): 42.8%
- Activity (Jurkat [29]): Active
- pIC50 (MCF7 [30]): 5.94
- pIC50 (HCC1937 [31]): 6.48
- pEC50 [32]: 2.46
- Activity (4T1 [33]): Active
- Activity (MCF7 [34]): Active
